In publication PMC6315005, “5F-Cumyl-PINACA in ‘e-liquids’ for electronic cigarettes: comprehensive characterization of a new type of synthetic cannabinoid in a trendy product including investigations on the in vitro and in vivo phase I metabolism of 5F-Cumyl-PINACA and its non-fluorinated analog Cumyl-PINACA” (Forensic Toxicology, 2018):
Where two headings read alike, the source gives them in different places.

How the values were obtained:
[1] = tested on: CB1 receptors; design: method as in PMID 28792725; settings: mouse AtT-20 neuroblastoma cells, membrane potential; cited from earlier work
[2] = tested on: CB2 receptors; design: method as in PMID 28792725; settings: mouse AtT-20 neuroblastoma cells, membrane potential; cited from earlier work
[3] = tested on: CB1 receptor; design: method as in PMID 29367862; settings: [35S]GTPγS binding; cited from earlier work
[4] = tested on: CB2 receptor; design: method as in PMID 29367862; settings: [35S]GTPγS binding; cited from earlier work
[5] = Authentic urine sample, phase I metabolites of 5F-Cumyl-PINACA (LC-MS/MS); format: in vivo, human; settings: for Urine [Peak area]: 5F-Cumyl-PINACA consumption
Method: (§1) The LC–MS/MS system used for the analysis of the urine and the pHLM assay samples consisted of a Nexera X2 UHPLC (Shimadzu) coupled to a QTRAP™ 5500 triple quadrupole linear ion trap instrument (SCIEX) equipped with the TurboIonSpray® probe. […] The total flow rate was 0.4 mL/min. The autosampler and the column oven temperatures were set to 10 and 40 °C, respectively.
(§2) The MRM ion transitions of the parent compounds were optimized carefully in positive ionization mode (see Supplementary Tables S1 and S2). Enhanced product ion (EPI) scan experiments were performed using hypothetical masses of anticipated phase I metabolites, and the obtained spectra were compared to the EPI spectrum of the respective parent compound. In order to detect unexpected metabolites not covered by the EPI scan approach, precursor ion scan experiments for the characteristic fragment ion at m/z 145 and for the m/z of its modified analogs 161 (monohydroxylation), 177 (dihydroxylation) and 179 (dihydrodiol) were conducted. The relative abundances of the characterized metabolites in the urine samples obtained during the self-administration study were compared using an MRM method comprising the most abundant ion transitions of each metabolite (see Supplementary Fig. S1 and Table S3).
The analysis of in vivo metabolism of 5F-Cumyl-PINACA in an authentic urine sample was conducted in accordance with the client’s inquest.
(§3) In order to cleave conjugates, 0.5 mL of an urine sample was incubated at 45 °C for 1 h after addition of 0.5 mL phosphate buffer (pH 6) and 30 µL β-glucuronidase. In a next step, 1.5 mL acetonitrile and 0.5 mL ammonium formate ([…]) were added. After shaking and centrifugation, 1 mL of the acetonitrile phase was transferred into a glass vial and evaporated to dryness under a gentle nitrogen stream at 40 °C. The residue was reconstituted in 200 µL mobile phase A/B (50:50, v/v) directly before LC–MS/MS analysis. Blank urine samples were prepared serving as negative controls.

[6] = Self-administration study, phase I metabolites of Cumyl-PINACA in urine (LC-MS/MS); format: in vivo, human; settings: for peak area in urine: normalized to creatinine 100 mg/dL
Method: as §1, §2
To investigate the in vivo phase I metabolism of Cumyl-PINACA, one of the authors (75 kg person) ingested 0.6 mg Cumyl-PINACA orally. In addition to blank samples taken prior to ingestion, serum and urine samples were collected repeatedly over periods of 17 and 31 h after ingestion, respectively. All samples were stored at − 20 °C until analysis. In Germany, approval by an ethics committee is not required for scientific self-experiments.
as §3

[7] = tested on: pooled human liver microsomes (pHLM); experiment: Pooled human liver microsome assay (phase I metabolism); format: in vitro ADME; settings: 60 min, 37 °C
Method: as §1, §2
To investigate the tentative phase I metabolism of Cumyl-PINACA and 5F-Cumyl-PINACA (extracted from e-liquids), in vitro experiments with pHLM were performed in triplicates. A 0.5-µL volume of a substrate solution ([…] in acetonitrile) was added to 49.5 µL of a reaction mixture consisting of 2.5 µL pHLM, 2.5 µL NADPH regenerating solution A, 0.5 µL NADPH regenerating solution B, 5.0 µL SOD, 10 µL 0.5 M phosphate buffer, and 29 µL deionized water. Incubation was performed for 60 min at 37 °C. The reaction was terminated by the addition of ice-cold acetonitrile, and the supernatant was analyzed after 1:10 dilution with mobile phase A/B (50:50, v/v). Blank pHLM samples were processed in the same way serving as negative controls.

[8] = Self-administration study, phase I metabolites of Cumyl-PINACA in urine (LC-MS/MS); format: in vivo, human; settings: normalized to creatinine 100 mg/dL
[9] = molecular target: T1, CB1 (Homo sapiens, UniProt P21554); experiment: cAMP biosensor assay with CB1 as target (DiscoveRx); format: cell-based; settings: for Curve top: agonist format, 20 µM forskolin; for Emax: read-out: Maximum response (compared to CP-55,940)
T1 construct: purchased DiscoveRx (Fremont, CA, USA)
Method: Each compound was tested in duplicates; to induce response, 20 µM forskolin was used.

[10] = 6 h after 0.6 mg Cumyl-PINACA oral
[11] = 16 h after 0.6 mg Cumyl-PINACA oral
[12] = 20.3 h after 0.6 mg Cumyl-PINACA oral
[13] = 22.3 h after 0.6 mg Cumyl-PINACA oral
[14] = 26.3 h after 0.6 mg Cumyl-PINACA oral
[15] = 29.3 h after 0.6 mg Cumyl-PINACA oral
[16] = pHLM incubation of 5F-Cumyl-PINACA
[17] = pHLM incubation of Cumyl-PINACA
[18] = 37.2 h after 0.6 mg Cumyl-PINACA oral

T1 sequence (P21554 whole entry): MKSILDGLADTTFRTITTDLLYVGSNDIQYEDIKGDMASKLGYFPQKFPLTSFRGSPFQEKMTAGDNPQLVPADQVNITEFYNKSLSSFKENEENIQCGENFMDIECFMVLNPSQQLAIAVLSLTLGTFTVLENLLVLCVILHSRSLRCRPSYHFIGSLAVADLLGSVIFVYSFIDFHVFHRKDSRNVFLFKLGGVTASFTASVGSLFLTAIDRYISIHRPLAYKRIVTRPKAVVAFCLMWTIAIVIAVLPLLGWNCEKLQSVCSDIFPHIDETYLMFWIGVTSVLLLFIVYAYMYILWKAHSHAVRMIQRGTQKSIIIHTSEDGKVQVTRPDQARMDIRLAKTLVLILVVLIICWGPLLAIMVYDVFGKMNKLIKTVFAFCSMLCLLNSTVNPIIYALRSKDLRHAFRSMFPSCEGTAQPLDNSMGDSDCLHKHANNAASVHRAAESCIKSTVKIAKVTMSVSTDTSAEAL

SMILES: CC(C)(NC(=O)c1nn(CC2CCCCC2)c2ccccc12)c1ccccc1
- potency of CB1 receptor activation compared to CP-55,940 [1]: greater potency than CP-55,940
- potency of CB2 receptor activation compared to CP-55,940 [2]: greater potency than CP-55,940

SMILES: CC(C)(NC(=O)c1cn(CCCCCF)c2ccccc12)c1ccccc1 [5F-Cumyl-PICA, reference compound]
- CB1 activity compared to CP-55,940 [3]: less activities as compared to CP-55,940
- potency of CB1 receptor activation compared to CP-55,940 [1]: greater potency than CP-55,940
- potency of CB2 receptor activation compared to CP-55,940 [2]: greater potency than CP-55,940
- CB2 activity compared to CP-55,940 [4]: less activities as compared to CP-55,940

SMILES: CC(C)(NC(=O)c1nn(CCCCCF)c2ccccc12)c1ccccc1 [5F-Cumyl-PINACA, 1-(5-fluoropentyl)-N-(2-phenylpropan-2-yl)-1H-indazole-3-carboxamide]
- detection of parent compound in urine [5]: not detected
- CB1 activity compared to CP-55,940 [3]: less activities as compared to CP-55,940
- potency of CB1 receptor activation compared to CP-55,940 [1]: greater potency than CP-55,940
- potency of CB2 receptor activation compared to CP-55,940 [2]: greater potency than CP-55,940
- CB2 activity compared to CP-55,940 [4]: less activities as compared to CP-55,940

SMILES: CC(C)(NC(=O)c1nn(CCCCC(=O)O)c2ccccc12)c1ccccc1 [A07]
- peak area in urine [6, 10]: 8.4E+04
- peak area in urine [6, 11]: 1.1E+05
- peak area in urine [6, 12]: 5.2E+04
- peak area in urine [6, 13]: 6.0E+04
- peak area in urine [6, 14]: 4.2E+04
- peak area in urine [6, 15]: 2.1E+04
- Urine [Peak area] [5]: 1.8E+05
- pHLM [Peak area] [7, 16]: 9.3E+06
- pHLM [Peak area] [7, 17]: 2.9E+06
- peak area in urine [8, 18]: 1.7E+04

SMILES: CC(C)(NC(=O)c1nn(CCCCCO)c2ccccc12)c1ccccc1 [A08]
- detectable in urine after self-administration ([6]; 0.6 mg Cumyl-PINACA oral): over 8 days
- relative abundance in urine samples ([6]; 0.6 mg Cumyl-PINACA oral): most abundant metabolite in all analyzed urine samples
- peak area in urine [6, 10]: 1.7E+07
- peak area in urine [6, 11]: 4.1E+06
- peak area in urine [6, 12]: 1.4E+06
- peak area in urine [6, 13]: 1.5E+06
- peak area in urine [6, 14]: 7.7E+05
- peak area in urine [6, 15]: 5.7E+05
- abundance in authentic urine sample [5]: high abundance
- Urine [Peak area] [5]: 2.2E+05
- pHLM [Peak area] [7, 16]: 6.0E+07
- pHLM [Peak area] [7, 17]: 7.3E+07
- peak area in urine ([8]; 3.2 h after 0.6 mg Cumyl-PINACA oral): 1.1E+06
- peak area in urine [8, 18]: 4.5E+05
- peak area in urine ([8]; 39 h after 0.6 mg Cumyl-PINACA oral): 2.9E+05
- peak area in urine ([8]; 88.5 h after 0.6 mg Cumyl-PINACA oral): 2.6E+04
- peak area in urine ([8]; 110.3 h after 0.6 mg Cumyl-PINACA oral): 6.1E+04
- peak area in urine ([8]; 134 h after 0.6 mg Cumyl-PINACA oral): 2.7E+04
- peak area in urine ([8]; 157.5 h after 0.6 mg Cumyl-PINACA oral): 1.5E+04
- peak area in urine ([8]; 182.5 h after 0.6 mg Cumyl-PINACA oral): 1.3E+04
- peak area in urine ([8]; 205.5 h after 0.6 mg Cumyl-PINACA oral): 1.1E+04

SMILES: CC(C)C(NC(=O)c1nn(Cc2ccc(F)cc2)c2ccccc12)C(N)=O (stereo not shown) [AB-FUBINACA]
- EC50 [9]: 0.89 nM
- Curve top [9]: 97.4
- Emax ([9]; control ligand CP-55,940): 97.8%

SMILES: CCCCCn1nc(C(=O)NC(C(N)=O)C(C)C)c2ccccc21 (stereo not shown) [AB-PINACA]
- EC50 [9]: 1.74 nM
- Curve top [9]: 92.3
- Emax ([9]; control ligand CP-55,940): 95.3%

SMILES: CC(C)C(NC(=O)c1nn(CC2CCCCC2)c2ccccc12)C(N)=O (stereo not shown) [AB-[…]]
- EC50 [9]: 0.28 nM
- Curve top [9]: 94.8
- Emax [9]: 94.8%

SMILES: O=C(c1cccc2ccccc12)c1cn(CCCCCF)c2ccccc12 [AM-2201]
- EC50 [9]: 0.45 nM
- Curve top [9]: 103
- Emax ([9]; control ligand CP-55,940): 101%

SMILES: CC(C)(NC(=O)c1nn(CCCCCF)c2c1=CC(O)C(O)C=2)c1ccccc1 (stereo not shown) [B01]
- Urine [Peak area] [5]: 5.6E+04
- pHLM [Peak area] [7, 16]: 7.0E+06

SMILES: CCCCn1cc(C(=O)NC(C)(C)c2ccccc2)c2ccccc21 [Cumyl-BICA]
- potency of CB1 receptor activation compared to CP-55,940 [1]: greater potency than CP-55,940
- potency of CB2 receptor activation compared to CP-55,940 [2]: greater potency than CP-55,940

SMILES: CCCCn1nc(C(=O)NC(C)(C)c2ccccc2)c2ccccc21 [Cumyl-BINACA]
- potency of CB1 receptor activation compared to CP-55,940 [1]: greater potency than CP-55,940
- potency of CB2 receptor activation compared to CP-55,940 [2]: greater potency than CP-55,940

SMILES: CC(C)(NC(=O)c1cn(CC2CCCCC2)c2ccccc12)c1ccccc1 [Cumyl-CHMICA]
- potency of CB1 receptor activation compared to CP-55,940 [1]: greater potency than CP-55,940
- potency of CB2 receptor activation compared to CP-55,940 [2]: greater potency than CP-55,940

SMILES: CC(C)(NC(=O)c1nn(Cc2ccc(F)cc2)c2ccccc12)c1ccccc1 [Cumyl-FUBINACA]
- potency of CB1 receptor activation compared to CP-55,940 [1]: greater potency than CP-55,940
- potency of CB2 receptor activation compared to CP-55,940 [2]: greater potency than CP-55,940

SMILES: CCCCCn1cc(C(=O)NC(C)(C)c2ccccc2)c2ccccc21 [Cumyl-PICA, reference compound]
- CB1 activity compared to CP-55,940 [3]: less activities as compared to CP-55,940
- potency of CB1 receptor activation compared to CP-55,940 [1]: greater potency than CP-55,940
- potency of CB2 receptor activation compared to CP-55,940 [2]: greater potency than CP-55,940
- CB2 activity compared to CP-55,940 [4]: less activities as compared to CP-55,940

SMILES: CCCCCn1c2ccccc2c2cc(C(=O)c3cccc4ccccc34)ccc21 [EG-018]
- Curve top [9]: 74.3
- Emax ([9]; control ligand CP-55,940): 71.8%

SMILES: CCCCCn1cc(C(=O)c2cccc3ccccc23)c2ccccc21 [JWH-018]
- EC50 [9]: 1.13 nM
- Curve top [9]: 97.6
- Emax ([9]; control ligand CP-55,940): 97.4%

SMILES: COC(=O)C(NC(=O)c1cn(CC2CCCCC2)c2ccccc12)C(C)(C)C (stereo not shown) [MDMB-CHMICA]
- EC50 [9]: 0.14 nM
- Curve top [9]: 94.8
- Emax ([9]; control ligand CP-55,940): 94.6%

SMILES: O=C(c1cccc2ccccc12)c1nn(CCCCCF)c2ccccc12 [THJ-2201]
- EC50 [9]: 1.68 nM
- Curve top [9]: 95.6
- Emax ([9]; control ligand CP-55,940): 91.9%
